# Test results reported in patent publication US20220193272A1, “Bleeding Detection Method” (Ethicon, Inc., priority 2020, published 2022).
# “Also recorded” adds a separate entry of the source. Peptide text beside a SMILES is read from it. * marks the point of attachment. AMC = Cc1cc(=O)oc2cc(N*)ccc12; Bz = O=C(c1ccccc1)*
# What was measured:
# thrombin [1] = target: T1, thrombin (Homo sapiens, UniProt P00734); test: Detection of thrombin activity on chromogenic substrate coated onto cellulose matrix; format: biochemical; conditions: 1 mL of 2 mg/mL substrate sprayed on matrix; EVICEL thrombin applied; 30 sec at room temperature; dihydrochloride
# T1 construct: purchased EVICEL® fibrin sealant kit product code 3905
# Description: S-2238 chromogenic thrombin substrate ((H-D-Phenylalanyl-L-pipecolyl-L-arginine-p-nitroaniline dihydrochloride) which is available from Chromgenix, Instrumentation Laboratory Company, Bedford, Mass., USA catalog number: 82032439), 25 mg, was dissolved in 12.5 mL of water. The resulting concentration was 2 mg/mL (25 mg in 12.5 mL). 1 mL of 2 mg/mL of the chromogenic substrate was sprayed onto one side of a white cellulose matrix (paper towel Scott C-Fold) approx. 4 in×6 cm in using the EVICEL® ASA tip (product code 3921S). The other side was not coated or sprayed with the substrate.
# A kit of EVICEL® (product code 3905) was thawed in a 37° C. water bath for 5 min. […] This was repeated on the substrate coated side and also applied in duplicate on the non-substrate coated side.
# As a control, thrombin was applied to the non-coated side of the matrix and no color changed was observed.
# thrombin [2] = target: T1, thrombin; test: Thrombin activity on chromogenic substrate in solution (dip stick standard tubes); format: biochemical; conditions: 0.2 mL of 2 mg/mL substrate + 1.8 mL water, about 2 min at room temperature
# Description: A “dip stick” can be dabbed onto a tissue surface that is suspected of bleeding (FIG. 2). The end of the dip stick can then be placed into a solution containing the visualization agent (chromogenic substrate). The amount of the thrombin present in the dip stick is determined by comparison with a standard curve obtained by running similar tests with known thrombin concentrations.
# For example, 0.2 mL of the 2 mg/mL chromogenic substrate was combined with 1.8 mL of water in a […] in 2 borosilicate glass tubes. The solution was gently mixed to distribute the substrate. A third tube was filled with 2 mL of water as an untreated control. To one of the tubes with the diluted substrate, 100 uL of 1000 IU/mL thrombin was added and 10 uL was added to the other tube. After about 2 min at room temperature, a photo was captured of the tubes.
# The tube with water is shown as a reference. The intensity of the color change reflected the amount of thrombin.
# thrombin [3] = target: T1, thrombin; test: Detection of chromogenic substrate product in plasma activated by thromboplastin reagent; format: biochemical; conditions: 0.4 mL PNP + 0.2 mL thromboplastin reagent with calcium + 0.2 mL of 2 mg/mL substrate; room temperature
# Description: Plasma has a background color (straw color). To test whether the product of the chromogenic substrate can be detected in plasma, 0.4 mL pooled normal plasma (PNP from George King Biomedical) was activated by a thromboplastin reagent (0.2 mL, Neoplastin CL plus product number 00375) with calcium to allow thrombin generation.
# Either 0.2 mL saline (as a control) or 0.2 mL of 2 mg/mL of the chromogenic substrate was added to the tube and mixed on the tube rocker.
# Evidence of clot formation was present after approx. 30 sec at room temperature. In view of the presence of fibrinogen in plasma, complete clot formation, i.e. solid/stable clot, occurred at approx. 2 min at room temperature.
# thrombin [4] = target: T1, thrombin; test: Detection of thrombin in solution with fluorescent substrates; format: biochemical
# Description: 1. 2 mL of 0, 10 IU/mL and 100 IU/mL thrombin in saline (none, low, and high thrombin) was prepared in duplicates and tubes were labeled accordingly. Stock of EVICEL® thrombin is about 1000 IU/mL.
# 2. A defined amount of thrombin substrate was added to thrombin solutions as follows and fluorescence of the mixture was evaluated. The substrate stock solutions were diluted 1:10 in Tris Buffered saline (TBS) buffer (180 uL TBS and 20 uL of stock substrate solution). TBS buffer comprises 20 mM Tris and 150 mM sodium chloride, and is adjusted to pH 7.4. 0.05 mL of the diluted stock solution (1:10 dilution) was added to the 2 mL of thrombin prepared in step 1, mixed at room temperature, and incubated for about 3 mins.
# 3. Images of tubes were captured while shining with light (using various light emitting sources) and responses were compared for different amounts of thrombin.
# thrombin [5] = target: T1, thrombin; test: Detection of thrombin in solution, repeated with higher amounts of substrate; format: biochemical; parameters: key to fluorescence signal, relative rank: +++: strongest fluorescence signal; ++: signal was greater; +: fluorescence signal was lowest; conditions: 100 uL at 5 mg/mL in DMSO [500 ug total substrate], 100 IU/mL thrombin, approx. 5 min
# Description: 100 IU/mL of thrombin was used.
# To 1.0 mL of 100 IU/mL thrombin in saline, 100 uL of Sigma substrate at 5 mg/mL in DMSO was added [500 ug total substrate].
# To 1.0 mL of 100 IU/mL thrombin in saline, 100 uL of HTI substrate diluted in TBS at 0.25 mg/mL (50 uL HTI manufacture's stock and 1.5 mL TBS, i.e. 1:30 dilution) was added [25 ug total substrate].
# To 1.0 mL of 100 IU/mL thrombin in saline, 10 uL of HTI manufacture's stock (7.5 mg/mL in DMSO) was added [75 ug total substrate]
# Images of tubes were captured under various lighting conditions (using various light sources) and responses were compared.
# The experiments were carried out at room temperature.
# thrombin [6] = target: T1, thrombin; test: Detection of thrombin on a surface (cellulose matrix) with fluorogenic substrates; format: biochemical; conditions: approx. 60 min after spraying; 365 nm flashlight only; after moving the matrix out of its original position
# Description: 2 mL solutions of 0, 10 IU/mL and 100 IU/mL thrombin in saline (none, and low and high thrombin) were prepared using a stock solution of EVICEL® thrombin of about 1000 IU/mL. 1 mL of each thrombin dilution was sprayed onto white cellulose matrix (paper towel Scott C-Fold) in a designated area.
# Immediately a defined amount of thrombin substrate, prepared as follows, was sprayed on the thrombin and coated cellulose matrix and fluorescence of the mixture was evaluated. The substrate stock solutions were diluted 1:10 in TBS (using 900 uL TBS and 100 uL of stock substrate solution). 1.0 mL of the diluted stock solution (1:10 dilution) was sprayed across all three regions of the cellulose matrix coated with thrombin at different levels.
# Images of cellulose matrix under various lighting conditions (with various light sources) were captured and the response was compared for different amounts of thrombin and substrates. The Experiments were carried out at room temperature.
# thrombin [7] = target: T1, thrombin; test: Detection of thrombin generated in plasma with fluorogenic substrates; format: biochemical
# Description: (§1) Pooled normal plasma (PNP) was purchased from George King Biomedical was thawed at 37 C for 5 min. 0.5 mL of PNP was aliquoted into 3-10×75 mm borosilicate glass tubes. To each to glass tube, 0.10 mL stock fluorescent substrate or 0.10 mL stock TBS was added. Tubes were labeled accordingly.
# (§2) 1.0 mL of PT reagent (Diagnostica Stago, STA Neoplastine Cl Plus containing calcium) was dispensed into the three tubes.
# Images of tubes were captured while using shining light (using various light sources) and response was compared for different substrates.
# pooled normal plasma = test: Clotting of pooled normal plasma with PT reagent in presence of substrate; format: biochemical; conditions: 0.5 mL PNP + 0.10 mL stock (5 mg/mL in DMSO) + 1.0 mL PT reagent; room temperature
# Description: as §1, §2
# The blank/TBS control clotted in approx. 10 sec (as expected for a PT clotting time).
# thrombin [8] = test: In vivo detection of thrombin at bleeding site, canine model with liver and spleen abrasions
# Description: In this in vivo study, the ability to detect thrombin on a surface in a live animal after creating a bleeding defect was assessed in a canine model with liver and spleen abrasions.
# Diffuse/oozing bleeding abrasion defect was created using cautery tip cleaning pad.
# 0.5 mL of Sigma fluorogenic substrate (Stock solution 5 mg/mL concentration in DMSO protected from light) was sprayed onto bleeding site and visualized with flashlight (356 nm) 2-3 min after application.
"time within which all of the substrate was cleaved (thrombin [4]; 100 IU/mL thrombin, no change in intensity between 3 min and 60 min)","fluorescence (thrombin [4]; approx. 3 min, ambient overhead lighting and 365 nm flashlight, 100 IU/mL thrombin)","color change (thrombin [4]; approx. 3 min, ambient overhead lighting only, thrombin 100, 10 and 0 IU/mL)","fluorescence (thrombin [4]; approx. 60 min, 365 nm flashlight only, 100 IU/mL thrombin)","fluorescence signal, relative rank (thrombin [5]; 365 nm flashlight only)",fluorescence signal (thrombin [5]; ambient overhead lighting and 365 nm flashlight),fluorescence on the surface underneath the cellulose matrix (thrombin [6]),"color change in plasma (thrombin [7]; 5 min after combining PNP, substrate and PT reagent, ambient overhead lighting only)","fluorescence signal in plasma (thrombin [7]; approx. 5 min, 365 nm flashlight only, 0.10 mL stock (Sigma 5 mg/mL in DMSO; HTI 0.25 mg/mL in TBS))","fluorescence in plasma (thrombin [7]; approx. 5 min, ambient overhead lighting and 365 nm flashlight, 0.10 mL stock (Sigma 5 mg/mL in DMSO))",SMILES,coloration on substrate coated side of cellulose matrix (thrombin [1]),coloration of tube (thrombin [2]; 10 uL of 1000 IU/mL thrombin),coloration of tube (thrombin [2]; 100 uL of 1000 IU/mL thrombin),yellow coloration/hue of clotted plasma compared with the saline control (thrombin [3]),time sample remained fluid before clotting (pooled normal plasma),"fluorescence signal at bleeding site (thrombin [8]; 0.5 mL of 5 mg/mL in DMSO sprayed onto bleeding site, flashlight (356 nm) 2-3 min after application, no exogenous thrombin added)","detection of bleeding in a liver abrasion model (thrombin [8]; canine, sprayed onto bleeding site)"
,,,,,,,,,,"Cl.Cl.NC(N)=NCCC[C@H](NC(=O)[C@@H]1CCCCN1C(=O)[C@H](N)Cc1ccccc1)C(=O)Nc1ccc([N+](=O)[O-])cc1 [S-2238, H-D-Phenylalanyl-L-pipecolyl-L-arginine-p-nitroaniline dihydrochloride]",yellow coloration (dark streaks) was evident; also recorded: change in coloration was evident,faint yellow coloration,yellow coloration,significantly stronger,,,
≤ 3 min,displaying fluorescence,no color change observed,displaying fluorescence,+++,strongest,spots of fluorescence could be seen,no color change was observed,strong fluorescence signal,strong fluorescence,Cc1cc(=O)oc2cc(NC(=O)[C@H](CCCN=C(N)N)NC(=O)[C@@H](NC(=O)[C@H](Cc3ccccc3)NC(=O)c3ccccc3)C(C)C)ccc12 [Sigma substrate] (Bz-Phe-Val-Arg-{AMC}),,,,,approx. 3 min,could be detected,enabled detection of bleeding
